The values that follow are results of earlier work, collected in patent publication US12263157B2, “Aldosterone synthase inhibitors for treating chronic kidney disease” (Boehringer Ingelheim International GmbH, priority 2021, dated 2025).

Data set [1] concerns patients with diabetic kidney disease. As to conditions: on top of standard of care.
Data set [2] concerns patients with heart failure with reduced ejection fraction. As to conditions: overall trial population.
Data set [3] has as its system people with type 2 diabetes.

With `Cc1ccc([C@@H]2O[C@H](CO)[C@@H](O)[C@H](O)[C@H]2O)cc1Cc1ccc(-c2ccc(F)cc2)s1` [canagliflozin], in data set [1], the “relative risk reduction for the composite endpoint of doubling of serum creatinine, ESRD or renal/CV death” value is recorded as 30%.

With `OC[C@H]1O[C@@H](c2ccc(Cl)c(Cc3ccc(O[C@H]4CCOC4)cc3)c2)[C@H](O)[C@@H](O)[C@@H]1O` [empagliflozin], in data set [2], the “reduction of the risk of the exploratory composite renal endpoint (chronic dialysis, kidney transplant, or sustained reduction in eGFR)” value is 50%. The “HR for the composite outcome of doubling of creatinine, the need to start kidney replacement therapy, or renal death” value in data set [3] (exploratory analysis, 95% CI 0.40-0.75) was 0.54. Also, the “reduction of the incidence of the composite outcome of doubling of creatinine, the need to start kidney replacement therapy, or renal death” value in data set [3] (exploratory analysis, people with type 2 diabetes) is 46%. For the same molecule, the “risk of hyperkalaemia or acute kidney injury” value in data set [3] (regardless of baseline ACEi or ARB use) was “no evidence of an increased risk”.
